Patent US11542240B2, “STK19 inhibitors for treatment of cancer” (TRUSTEES OF BOSTON UNIVERSITY, priority 2018, dated 2023)
Read-outs that look alike come from different tables or passages of the source.

How the values were obtained:
Experiment in all cases: biochemical
Assay type in all cases: binding
[1] = target: panel of 468 diverse kinases (Homo sapiens, UniProt P36897); conditions: TGFBR1; 1000 nM; read-out: Percent Control
[2] = target: panel of 468 diverse kinases (Homo sapiens, UniProt Q16566); conditions: CAMK4; 1000 nM; read-out: Percent Control
[3] = target: panel of 468 diverse kinases (Homo sapiens, UniProt Q13163); conditions: MEK5; 1000 nM; read-out: Percent Control
[4] = target: panel of 468 diverse kinases (Homo sapiens, UniProt Q8IWQ3); conditions: BRSK2; 1000 nM; read-out: Percent Control
[5] = target: panel of 468 diverse kinases (Homo sapiens, UniProt P49336); conditions: CDK8; 1000 nM; read-out: Percent Control
[6] = target: panel of 468 diverse kinases (Homo sapiens, UniProt Q96SB4); conditions: SRPK1; 1000 nM; read-out: Percent Control
[7] = target: panel of 468 diverse kinases (Homo sapiens, UniProt Q9H4B4); conditions: PLK3; 1000 nM; read-out: Percent Control
[8] = target: panel of 468 diverse kinases (Homo sapiens, UniProt Q9Y4K4); conditions: MAP4K5; 1000 nM; read-out: Percent Control
[9] = target: panel of 468 diverse kinases (Homo sapiens, UniProt P04049); conditions: RAF1; 1000 nM; read-out: Percent Control
[10] = target: panel of 468 diverse kinases (Homo sapiens, UniProt O15146); conditions: MUSK; 1000 nM; read-out: Percent Control
[11] = target: panel of 468 diverse kinases (Homo sapiens, UniProt Q99755); conditions: PIP5KIV; 1000 nM; read-out: Percent Control
[12] = target: panel of 468 diverse kinases (Homo sapiens, UniProt Q08345); conditions: DDR1; 1000 nM; read-out: Percent Control
[13] = target: panel of 468 diverse kinases (Homo sapiens, UniProt P00519, F317I); conditions: 1000 nM, read-out: Percent Control
[14] = target: panel of 468 diverse kinases (Homo sapiens, UniProt P28482); conditions: ERK2; 1000 nM; read-out: Percent Control
[15] = target: panel of 468 diverse kinases (Homo sapiens, UniProt P45984); conditions: JNK2; 1000 nM; read-out: Percent Control
[16] = target: panel of 468 diverse kinases (Homo sapiens, UniProt Q8NFD2); conditions: ANKK1; 1000 nM; read-out: Percent Control
[17] = target: panel of 468 diverse kinases (Homo sapiens, UniProt Q9Y6M4); conditions: CSNK1G3; 1000 nM; read-out: Percent Control
[18] = target: panel of 468 diverse kinases (Homo sapiens, UniProt P51812); conditions: 1000 nM, read-out: Percent Control
[19] = target: panel of 468 diverse kinases (Homo sapiens, UniProt Q04912); conditions: MST1R; 1000 nM; read-out: Percent Control
[20] = target: panel of 468 diverse kinases (Homo sapiens, UniProt P68400); conditions: CSNK2A1; 1000 nM; read-out: Percent Control
[21] = target: panel of 468 diverse kinases (Homo sapiens, UniProt P54756); conditions: EPHA5; 1000 nM; read-out: Percent Control
[22] = target: panel of 468 diverse kinases (Homo sapiens, UniProt P29597); conditions: 1000 nM, read-out: Percent Control
[23] = target: panel of 468 diverse kinases (Homo sapiens, UniProt P00533, L858R/T790M); conditions: EGFR(L858R, T790M); 1000 nM; read-out: Percent Control
[24] = target: panel of 468 diverse kinases (Homo sapiens, UniProt Q9H3Y6); conditions: SRMS; 1000 nM; read-out: Percent Control
[25] = target: panel of 468 diverse kinases (Homo sapiens, UniProt Q9BQI3); conditions: EIF2AK1; 1000 nM; read-out: Percent Control
[26] = target: panel of 468 diverse kinases (Homo sapiens, UniProt Q12866); conditions: MERTK; 1000 nM; read-out: Percent Control
[27] = target: panel of 468 diverse kinases (Homo sapiens, UniProt Q9UK32); conditions: 1000 nM, read-out: Percent Control
[28] = target: panel of 468 diverse kinases (Homo sapiens, UniProt P53778); conditions: p38-gamma; 1000 nM; read-out: Percent Control
[29] = target: panel of 468 diverse kinases (Homo sapiens, UniProt Q9UPZ9); conditions: ICK; 1000 nM; read-out: Percent Control
[30] = target: panel of 468 diverse kinases (Homo sapiens, UniProt Q8N568); conditions: DCAMKL2; 1000 nM; read-out: Percent Control

Sequence of panel of 468 diverse kinases (Homo sapiens, UniProt P54756) (P54756 25-1037 limits assumed): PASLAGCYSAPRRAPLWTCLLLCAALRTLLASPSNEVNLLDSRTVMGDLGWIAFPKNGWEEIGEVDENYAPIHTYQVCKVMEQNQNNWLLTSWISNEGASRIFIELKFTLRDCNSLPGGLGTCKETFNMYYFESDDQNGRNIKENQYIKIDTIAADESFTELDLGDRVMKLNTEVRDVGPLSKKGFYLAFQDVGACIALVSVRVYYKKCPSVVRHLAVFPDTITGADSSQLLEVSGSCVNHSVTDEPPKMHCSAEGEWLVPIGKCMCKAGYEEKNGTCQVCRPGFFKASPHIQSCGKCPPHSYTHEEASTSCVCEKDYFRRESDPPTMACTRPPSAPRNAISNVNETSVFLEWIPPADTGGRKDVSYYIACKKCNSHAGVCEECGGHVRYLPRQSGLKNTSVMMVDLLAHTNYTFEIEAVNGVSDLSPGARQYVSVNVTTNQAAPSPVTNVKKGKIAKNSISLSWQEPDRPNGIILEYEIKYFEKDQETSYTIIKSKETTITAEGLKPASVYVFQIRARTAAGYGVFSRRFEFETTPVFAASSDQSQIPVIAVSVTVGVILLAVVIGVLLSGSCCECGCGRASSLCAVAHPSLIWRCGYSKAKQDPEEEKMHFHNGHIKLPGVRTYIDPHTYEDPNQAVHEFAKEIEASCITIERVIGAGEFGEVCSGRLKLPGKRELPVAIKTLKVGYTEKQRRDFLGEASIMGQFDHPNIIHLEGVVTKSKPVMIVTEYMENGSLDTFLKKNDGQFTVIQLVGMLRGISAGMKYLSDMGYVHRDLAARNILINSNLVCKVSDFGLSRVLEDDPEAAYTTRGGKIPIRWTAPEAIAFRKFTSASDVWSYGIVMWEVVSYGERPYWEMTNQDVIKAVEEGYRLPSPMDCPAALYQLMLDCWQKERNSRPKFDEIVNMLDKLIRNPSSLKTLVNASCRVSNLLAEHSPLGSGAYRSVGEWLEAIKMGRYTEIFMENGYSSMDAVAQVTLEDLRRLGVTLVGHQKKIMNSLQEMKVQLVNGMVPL
Sequence of panel of 468 diverse kinases (Homo sapiens, UniProt Q08345) (Q08345 19-913 limits assumed): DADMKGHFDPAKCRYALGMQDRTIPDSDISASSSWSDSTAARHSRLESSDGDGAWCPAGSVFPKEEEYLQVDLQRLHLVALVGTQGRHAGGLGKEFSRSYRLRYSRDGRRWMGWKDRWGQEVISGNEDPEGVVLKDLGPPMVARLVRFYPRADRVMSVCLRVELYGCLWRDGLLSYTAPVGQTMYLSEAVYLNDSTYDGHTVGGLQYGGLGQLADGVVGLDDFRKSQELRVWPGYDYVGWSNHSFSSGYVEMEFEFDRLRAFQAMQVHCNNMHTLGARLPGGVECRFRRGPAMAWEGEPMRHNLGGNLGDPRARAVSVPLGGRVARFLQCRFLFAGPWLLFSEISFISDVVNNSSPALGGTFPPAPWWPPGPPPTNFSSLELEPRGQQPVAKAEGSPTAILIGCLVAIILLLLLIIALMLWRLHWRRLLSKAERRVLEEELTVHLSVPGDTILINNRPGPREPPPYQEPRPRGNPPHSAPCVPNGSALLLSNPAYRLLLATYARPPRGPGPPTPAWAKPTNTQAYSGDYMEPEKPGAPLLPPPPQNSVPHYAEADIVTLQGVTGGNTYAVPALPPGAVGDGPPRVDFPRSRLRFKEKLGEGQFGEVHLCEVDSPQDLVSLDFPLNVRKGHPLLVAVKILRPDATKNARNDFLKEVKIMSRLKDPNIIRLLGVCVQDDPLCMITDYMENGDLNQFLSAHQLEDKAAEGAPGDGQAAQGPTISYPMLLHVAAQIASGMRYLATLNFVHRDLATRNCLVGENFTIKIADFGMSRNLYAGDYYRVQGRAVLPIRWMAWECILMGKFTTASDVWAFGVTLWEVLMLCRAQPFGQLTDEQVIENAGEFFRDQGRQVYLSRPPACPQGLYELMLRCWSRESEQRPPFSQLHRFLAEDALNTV
Sequence of panel of 468 diverse kinases (Homo sapiens, UniProt Q12866) (Q12866 21-999 limits assumed): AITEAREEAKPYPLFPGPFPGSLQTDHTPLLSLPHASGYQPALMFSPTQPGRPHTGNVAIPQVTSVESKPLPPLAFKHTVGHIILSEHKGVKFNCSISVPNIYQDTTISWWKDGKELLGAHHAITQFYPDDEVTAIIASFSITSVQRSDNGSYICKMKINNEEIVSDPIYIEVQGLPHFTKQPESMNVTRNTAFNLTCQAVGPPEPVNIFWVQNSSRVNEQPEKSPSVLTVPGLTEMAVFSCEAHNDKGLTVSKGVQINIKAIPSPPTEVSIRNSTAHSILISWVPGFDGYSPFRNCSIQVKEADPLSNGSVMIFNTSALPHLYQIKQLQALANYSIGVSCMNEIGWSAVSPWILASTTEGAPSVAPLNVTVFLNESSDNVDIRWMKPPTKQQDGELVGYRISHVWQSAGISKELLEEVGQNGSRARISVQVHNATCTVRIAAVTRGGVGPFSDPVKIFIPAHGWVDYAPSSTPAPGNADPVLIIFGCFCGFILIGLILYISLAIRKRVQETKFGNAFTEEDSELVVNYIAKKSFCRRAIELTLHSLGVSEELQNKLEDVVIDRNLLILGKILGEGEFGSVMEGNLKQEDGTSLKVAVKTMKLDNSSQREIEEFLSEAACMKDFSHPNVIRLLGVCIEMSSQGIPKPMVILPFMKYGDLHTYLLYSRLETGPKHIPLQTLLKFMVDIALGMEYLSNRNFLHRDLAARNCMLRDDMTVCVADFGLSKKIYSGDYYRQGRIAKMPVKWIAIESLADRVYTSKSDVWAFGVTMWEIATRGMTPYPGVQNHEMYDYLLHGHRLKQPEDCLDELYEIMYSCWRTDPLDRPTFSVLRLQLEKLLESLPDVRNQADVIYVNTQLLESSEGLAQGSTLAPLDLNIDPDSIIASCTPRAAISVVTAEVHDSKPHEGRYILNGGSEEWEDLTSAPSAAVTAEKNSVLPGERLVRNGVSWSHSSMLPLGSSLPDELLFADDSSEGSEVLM
Sequence of panel of 468 diverse kinases (Homo sapiens, UniProt O15146) (O15146 24-869 limits assumed): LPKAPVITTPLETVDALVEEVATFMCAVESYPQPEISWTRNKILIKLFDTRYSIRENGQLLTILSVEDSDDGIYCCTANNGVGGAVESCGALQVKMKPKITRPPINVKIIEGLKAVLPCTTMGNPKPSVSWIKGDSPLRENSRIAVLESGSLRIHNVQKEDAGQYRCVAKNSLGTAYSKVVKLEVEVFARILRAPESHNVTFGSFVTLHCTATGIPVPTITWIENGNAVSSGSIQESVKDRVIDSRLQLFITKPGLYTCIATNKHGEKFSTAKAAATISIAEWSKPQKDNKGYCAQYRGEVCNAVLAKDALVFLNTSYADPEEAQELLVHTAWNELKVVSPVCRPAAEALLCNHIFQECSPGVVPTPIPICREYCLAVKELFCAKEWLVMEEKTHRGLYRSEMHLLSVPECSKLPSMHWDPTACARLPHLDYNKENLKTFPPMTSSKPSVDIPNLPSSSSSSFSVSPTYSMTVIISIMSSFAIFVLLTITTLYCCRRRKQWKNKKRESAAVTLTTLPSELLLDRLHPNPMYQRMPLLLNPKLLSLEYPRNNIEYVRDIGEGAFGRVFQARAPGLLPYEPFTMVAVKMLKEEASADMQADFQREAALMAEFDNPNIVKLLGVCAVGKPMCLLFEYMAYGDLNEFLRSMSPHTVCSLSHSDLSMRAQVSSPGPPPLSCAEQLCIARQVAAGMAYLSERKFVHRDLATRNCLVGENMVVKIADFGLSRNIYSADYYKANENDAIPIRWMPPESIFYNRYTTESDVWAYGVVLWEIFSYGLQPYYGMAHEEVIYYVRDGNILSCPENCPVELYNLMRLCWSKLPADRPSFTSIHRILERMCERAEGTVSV
Sequence of panel of 468 diverse kinases (Homo sapiens, UniProt Q04912) (Q04912 25-304 limits assumed): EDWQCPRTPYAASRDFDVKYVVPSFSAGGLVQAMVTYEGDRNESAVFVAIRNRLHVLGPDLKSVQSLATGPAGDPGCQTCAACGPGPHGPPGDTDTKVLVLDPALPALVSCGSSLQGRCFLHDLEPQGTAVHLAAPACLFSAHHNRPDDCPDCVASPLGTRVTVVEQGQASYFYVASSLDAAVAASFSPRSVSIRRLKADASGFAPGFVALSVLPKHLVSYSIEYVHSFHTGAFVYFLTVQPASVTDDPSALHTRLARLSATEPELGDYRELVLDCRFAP
Sequence of panel of 468 diverse kinases (Homo sapiens, UniProt Q04912) (Q04912 310-1400 limits assumed): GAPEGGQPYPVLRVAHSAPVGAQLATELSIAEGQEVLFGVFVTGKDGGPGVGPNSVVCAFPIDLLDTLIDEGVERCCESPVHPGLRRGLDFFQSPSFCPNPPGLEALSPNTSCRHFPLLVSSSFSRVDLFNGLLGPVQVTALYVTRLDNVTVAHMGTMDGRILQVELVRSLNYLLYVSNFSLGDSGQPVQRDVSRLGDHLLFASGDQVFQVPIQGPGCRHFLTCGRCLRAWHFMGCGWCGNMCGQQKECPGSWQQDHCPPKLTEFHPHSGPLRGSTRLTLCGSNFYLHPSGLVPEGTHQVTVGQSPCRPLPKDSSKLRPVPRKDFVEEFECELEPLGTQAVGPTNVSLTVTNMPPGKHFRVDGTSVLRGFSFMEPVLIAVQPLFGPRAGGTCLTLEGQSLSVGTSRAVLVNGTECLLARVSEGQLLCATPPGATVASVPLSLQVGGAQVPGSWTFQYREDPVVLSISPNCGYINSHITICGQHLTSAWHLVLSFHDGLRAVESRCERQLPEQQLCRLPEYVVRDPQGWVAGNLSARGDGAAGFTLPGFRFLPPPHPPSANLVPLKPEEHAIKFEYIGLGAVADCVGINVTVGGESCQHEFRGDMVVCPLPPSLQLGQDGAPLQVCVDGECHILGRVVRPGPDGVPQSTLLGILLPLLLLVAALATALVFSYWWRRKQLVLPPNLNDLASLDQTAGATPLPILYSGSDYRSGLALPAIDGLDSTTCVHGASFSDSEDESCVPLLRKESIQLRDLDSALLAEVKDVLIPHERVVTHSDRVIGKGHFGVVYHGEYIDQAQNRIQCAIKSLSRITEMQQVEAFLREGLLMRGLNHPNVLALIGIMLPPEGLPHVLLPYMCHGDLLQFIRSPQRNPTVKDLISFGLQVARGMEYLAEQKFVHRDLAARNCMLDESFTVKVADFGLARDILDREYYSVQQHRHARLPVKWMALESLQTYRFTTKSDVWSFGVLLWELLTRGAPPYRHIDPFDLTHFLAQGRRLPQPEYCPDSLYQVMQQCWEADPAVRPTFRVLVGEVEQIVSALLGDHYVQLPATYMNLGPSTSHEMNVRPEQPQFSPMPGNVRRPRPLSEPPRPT

COc1cc2nc(NC3CC3)nc(NC3CCN(C(C)C)CC3)c2cc1OC [Formula IV]
remaining activity at 1 µM [1]: 82%
remaining activity at 1 µM [2]: 98%
remaining activity at 1 µM [3]: 60%
remaining activity at 1 µM [4]: 100%
remaining activity at 1 µM [5]: 96%
remaining activity at 1 µM [6]: 97%
remaining activity at 1 µM [7]: 68%
remaining activity at 1 µM [8]: 100%
remaining activity at 1 µM [9]: 83%
remaining activity at 1 µM [10]: 83%
remaining activity at 1 µM [11]: 96%
remaining activity at 1 µM [12]: 88%
remaining activity at 1 µM ([13]; ABL1(F317I)-nonphosphorylated): 85%
remaining activity at 1 µM ([13]; ABL1(F317I)-pho sphorylated): 90%
remaining activity at 1 µM [14]: 81%
remaining activity at 1 µM [15]: 45%
remaining activity at 1 µM [16]: 50%
remaining activity at 1 µM [17]: 100%
remaining activity at 1 µM ([18]; RSK2(Kin.Dom.1-N-terminal)): 67%
remaining activity at 1 µM ([18]; RSK2(Kin.Dom.2-C-terminal)): 53%
remaining activity at 1 µM [19]: 100%
remaining activity at 1 µM [20]: 61%
remaining activity at 1 µM [21]: 86%
remaining activity at 1 µM ([22]; TYK2(JH1domain-catalytic)): 37%
remaining activity at 1 µM ([22]; TYK2(JH2domain-pseudokinase)): 79%
remaining activity at 1 µM [23]: 35%
remaining activity at 1 µM [24]: 89%
remaining activity at 1 µM [25]: 73%
remaining activity at 1 µM [26]: 70%
remaining activity at 1 µM ([27]; RSK4(Kin.Dom.1-N-terminal)): 92%
remaining activity at 1 µM ([27]; RSK4(Kin.Dom.2-C-terminal)): 82%
remaining activity at 1 µM [28]: 78%
remaining activity at 1 µM [29]: 100%
remaining activity at 1 µM [30]: 90%
